# Data reported in patent US11701372B2, “Inhalation formulations of 1'-cyano substituted carba-nucleoside analogs” (priority 2020, dated 2023).
# Where two headings read alike, the source gives them in different places.
# Columns and labels:
# [1] = 24 hours, endogenous ATP
# [2] = format: physicochemical; details: for % assay/degs: T = 0
# Description: For each condition, samples were staged at ambient and refrigerated conditions. Samples were analyzed for % assay/degs, appearance, reconstitution time, pH, and compared to T=0. The structures of the key impurities/metabolites are shown below.
# [3] = In use testing of reconstituted solutions in IV bags and IV tubings; format: physicochemical
# From the text: The IV bags and IV tubings were sampled over time and tested for % assay/degradation.
compound,measurement,setting,value
Nc1ncnc2c1ncn2[C@@H]1O[C@H](COP(=O)(O)OP(=O)(O)OP(=O)(O)O)[C@@H](O)[C@H]1O [ATP],ATP Peak Area (LC-MS/MS),"[1]; Nasal Mucosa, 0.168 mg/kg inhaled deposited dose of Formula Ia",6.47 ± 0.40 ×10^8
same,ATP Peak Area (LC-MS/MS),"[1]; Nasal Mucosa, 0.536 mg/kg inhaled deposited dose of Formula Ia",5.65 ± 0.79 ×10^8
same,ATP Peak Area (LC-MS/MS),"[1]; Nasopharyngeal Mucosa, 0.168 mg/kg inhaled deposited dose of Formula Ia",4.29 ± 0.84 ×10^8
same,ATP Peak Area (LC-MS/MS),"[1]; Nasopharyngeal Mucosa, 0.536 mg/kg inhaled deposited dose of Formula Ia",3.69 ± 0.40 ×10^8
N#C[C@@]1(c2ccc3c(N)ncnn23)O[C@H](COP(=O)(O)Oc2ccccc2)[C@@H](O)[C@H]1O [Compound F],"% assay/degs, difference from T = 0","[2]; pH 1.8, 2-8° C., 2 h",0.02%
same,"% assay/degs, difference from T = 0","[2]; pH 1.8, 2-8° C., 3 h",0.03%
same,"% assay/degs, difference from T = 0","[2]; pH 1.8, 2-8° C., 8 h",0.08%
same,"% assay/degs, difference from T = 0","[2]; pH 1.8, 2-8° C., 24 h",0.20%
same,"% assay/degs, difference from T = 0","[2]; pH 1.8, 2-8° C., 48 h",0.39%
same,"% assay/degs, difference from T = 0","[2]; pH 1.8, Ambient, 1 h",0.04%
same,"% assay/degs, difference from T = 0","[2]; pH 1.8, Ambient, 2 h",0.08%
same,"% assay/degs, difference from T = 0","[2]; pH 1.8, Ambient, 3 h",0.13%
same,"% assay/degs, difference from T = 0","[2]; pH 1.8, Ambient, 8 h",0.34%
same,"% assay/degs, difference from T = 0","[2]; pH 1.8, Ambient, 24 h",1.05%
same,"% assay/degs, difference from T = 0","[2]; pH 1.8, Ambient, 48 h",2.09%
same,% assay/degs,[2]; pH 1.8,0.08%
same,"% assay/degs, difference from T = 0","[2]; pH 2.0, 2-8° C., 2 h",0.02%
same,"% assay/degs, difference from T = 0","[2]; pH 2.0, 2-8° C., 3 h",0.02%
same,"% assay/degs, difference from T = 0","[2]; pH 2.0, 2-8° C., 8 h",0.06%
same,"% assay/degs, difference from T = 0","[2]; pH 2.0, 2-8° C., 24 h",0.13%
same,"% assay/degs, difference from T = 0","[2]; pH 2.0, 2-8° C., 48 h",0.25%
same,"% assay/degs, difference from T = 0","[2]; pH 2.0, Ambient, 1 h",0.03%
same,"% assay/degs, difference from T = 0","[2]; pH 2.0, Ambient, 2 h",0.05%
same,"% assay/degs, difference from T = 0","[2]; pH 2.0, Ambient, 3 h",0.08%
same,"% assay/degs, difference from T = 0","[2]; pH 2.0, Ambient, 8 h",0.22%
same,"% assay/degs, difference from T = 0","[2]; pH 2.0, Ambient, 24 h",0.68%
same,"% assay/degs, difference from T = 0","[2]; pH 2.0, Ambient, 48 h",1.37%
same,% assay/degs,[2]; pH 2.0,0.06%
same,"% assay/degs, difference from T = 0","[2]; pH 3.5, 2-8° C., 2 h",0.00%
same,"% assay/degs, difference from T = 0","[2]; pH 3.5, 2-8° C., 8 h",0.00%
same,"% assay/degs, difference from T = 0","[2]; pH 3.5, 2-8° C., 24 h",0.00%
same,"% assay/degs, difference from T = 0","[2]; pH 3.5, 2-8° C., 48 h",0.01%
same,"% assay/degs, difference from T = 0","[2]; pH 3.5, 2-8° C., 72 h",0.01%
same,"% assay/degs, difference from T = 0","[2]; pH 3.5, 2-8° C., 96 h",0.02%
same,"% assay/degs, difference from T = 0","[2]; pH 3.5, 2-8° C., 168 h",0.03%
same,"% assay/degs, difference from T = 0","[2]; pH 3.5, Ambient, 2 h",0.00%
same,"% assay/degs, difference from T = 0","[2]; pH 3.5, Ambient, 8 h",0.01%
same,"% assay/degs, difference from T = 0","[2]; pH 3.5, Ambient, 24 h",0.03%
same,"% assay/degs, difference from T = 0","[2]; pH 3.5, Ambient, 48 h",0.05%
same,"% assay/degs, difference from T = 0","[2]; pH 3.5, Ambient, 72 h",0.08%
same,"% assay/degs, difference from T = 0","[2]; pH 3.5, Ambient, 96 h",0.11%
same,"% assay/degs, difference from T = 0","[2]; pH 3.5, Ambient, 168 h",0.19%
same,% assay/degs,[2]; pH 3.5,0.02%
same,"% assay/degs, difference from T = 0","[2]; pH 3.8, 2-8° C., 7.2 h",0.00%
same,"% assay/degs, difference from T = 0","[2]; pH 3.8, 2-8° C., 24 h",0.00%
same,"% assay/degs, difference from T = 0","[2]; pH 3.8, 2-8° C., 96 h",0.01%
same,"% assay/degs, difference from T = 0","[2]; pH 3.8, 2-8° C., 168 h",0.01%
same,"% assay/degs, difference from T = 0","[2]; pH 3.8, Ambient, 7.2 h",0.01%
same,"% assay/degs, difference from T = 0","[2]; pH 3.8, Ambient, 24 h",0.02%
same,"% assay/degs, difference from T = 0","[2]; pH 3.8, Ambient, 96 h",0.06%
same,"% assay/degs, difference from T = 0","[2]; pH 3.8, Ambient, 168 h",0.10%
same,% assay/degs,[2]; pH 3.8,0.02%
same,"% assay/degs, difference from T = 0","[2]; pH 4.0, 2-8° C., 7.2 h",0.00%
same,"% assay/degs, difference from T = 0","[2]; pH 4.0, 2-8° C., 24 h",0.00%
same,"% assay/degs, difference from T = 0","[2]; pH 4.0, 2-8° C., 96 h",0.01%
same,"% assay/degs, difference from T = 0","[2]; pH 4.0, 2-8° C., 168 h",0.01%
same,"% assay/degs, difference from T = 0","[2]; pH 4.0, Ambient, 7.2 h",0.00%
same,"% assay/degs, difference from T = 0","[2]; pH 4.0, Ambient, 24 h",0.01%
same,"% assay/degs, difference from T = 0","[2]; pH 4.0, Ambient, 96 h",0.04%
same,"% assay/degs, difference from T = 0","[2]; pH 4.0, Ambient, 168 h",0.07%
same,% assay/degs,[2]; pH 4.0,0.02%
same,% assay/degradation,"[3]; 30 mg (IV Bag), 2-8° C. 24 h",0.07 % w/w
same,% assay/degradation,"[3]; 30 mg (IV Bag), 2-8° C. 48 h",0.06 % w/w
same,% assay/degradation,"[3]; 30 mg (IV Bag), Ambient 4 h",0.06 % w/w
same,% assay/degradation,"[3]; 30 mg (IV Bag), Ambient 8 h",0.07 % w/w
same,% assay/degradation,"[3]; 30 mg (IV Bag), Ambient 24 h",0.08 % w/w
same,% assay/degradation,"[3]; 30 mg (IV Bag), T = 0 (2-8° C. series)",0.06 % w/w
same,% assay/degradation,"[3]; 30 mg (IV Tube), Ambient 6 Hours",0.06 % w/w
same,% assay/degradation,"[3]; 30 mg in 100 mL 0.9% Saline (IV Bag), T = 0 (Ambient series)",0.06 % w/w
same,% assay/degradation,"[3]; 200 mg (IV Bag), 2-8° C. 24 h",0.06 % w/w
same,% assay/degradation,"[3]; 200 mg (IV Bag), 2-8° C. 48 h",0.06 % w/w
same,% assay/degradation,"[3]; 200 mg (IV Bag), Ambient 4 h",0.06 % w/w
same,% assay/degradation,"[3]; 200 mg (IV Bag), Ambient 8 h",0.06 % w/w
same,% assay/degradation,"[3]; 200 mg (IV Bag), Ambient 24 h",0.08 % w/w
same,% assay/degradation,"[3]; 200 mg (IV Bag), T = 0 (2-8° C. series)",0.06 % w/w
same,% assay/degradation,"[3]; 200 mg (IV Tube), Ambient 6 h",0.06 % w/w
same,% assay/degradation,"[3]; 200 mg in 100 mL 0.9% Saline (IV Bag), T = 0 (Ambient series)",0.06 % w/w
